The record followed here is patent publication US20260234123A1, “Inhibitors of NLRP3” (Mwyngil Therapeutics, Inc., priority 2023, published 2026).

SMILES strings stand for the structures.

The subject of this assay is IL1b release THP-1. Kind of assay: IL1b release THP-1 (ELISA). The class given is cell-based. Conditions: Homo sapiens; average EC50; THP-1 cells primed with 1 μg/ml LPS 4 h, stimulated with 10 μM Nigericin 2 h; IL-1β in supernatant by ELISA; read-out: THP 1 IL 1b, EC50. How it is done: Example A. Primary Assays Used to Determine IL1b Release THP-1 (ELISA)
• Microbiological safety cabinet, classII (NuAire, USA) • CO2 incubator (VWR Science, USA) • Countess Automated Cell Counter (Invitrogen, USA, cat. number C10227) • Centrifuge CM 6M (Elmi, Latvia) • Serological pipettes 2, 5, 10, 25, 50, 100 ml sterile (Santa Cruz Biotechnology, Inc., USA, sc-200277, sc-200279, sc-200281, sc-200283, Sc-213234, sc-516777) • Single and multichannel pipettes 0.2-10 μL, 50-1200 μL (Eppendorf AG-Hamburg, Germany) • 50 mL PP sterile tubes (Greiner, cat. Number 210261).
• RPMI-1640 (PanEco, C330) • Sodium pyruvate (Paneco, cat. number Φ023) • Non-Essential amino acids 50× (Paneco, Φ116) • Essential amino acids 50× (Paneco, Φ115/50) • FBS (Hyclone Laboratories Inc, USA, SV30160.03) • Antibiotic-antimycotic (Gibco, USA, 15240-062) • 2-mercaptoethanol 1000×55 mM (Gibco, USA, 21985-023) • LPS-EB ultrapure (invivogen, cat. number tlrl-3pelps) • Nigericin (Sigma, cat. number N7143) • ELISA kit, IL-1beta (Cat #A-8766, Interleukin-1 beta-EIA-BEST, Vector Best). LPS Preparation (5 mg/ml): • 1. Add 1 ml of endotoxin-free water according manufacturer's protocol • 2. Vortex until complete solubilization • 3. Aliquote and store at […] for long term storage.
• 1. Add methanol to 10 mg of powder to produce the 10 mM Nigericin solution • 2. Vortex until complete solubilization • 3. Store at 4° C.
THP-1 cells were propagated in RPMI-1640 (10% FBS, Antibiotic-antimycotic 1×, non-Essential amino acids 1×, Essential amino acids 1×, Sodium pyruvate 2×, 2-mercaptoethanol 0.05 mM) at 37° C. and at 5% CO2 in an incubator.
• 1. THP-1 cells were spined at 100 g for 5 min in 50 ml tube. • 2. THP-1 cells were resuspended in warm culture medium (w/o FBS, w/o Antibiotic-antimycotic, non-Essential amino acids 1×, Essential amino acids 1×, Sodium pyruvate 2×) to the concentration 1,3×10^6 cells. • 3. THP-1 cells were primed in tube with 1 μg/ml of LPS for 4 h at 37° C. and at 5% CO2 in an incubator. • 4. THP-1 cells were stimulated with 10 μM of Nigericin (Cat #N7143-10 MG, Sigma Aldrich) for 2 h at 37° C. and at 5% CO2 in an incubator. • 5. After the full activation, the supernatant was collected and the levels of IL-1β were assessed via ELISA according manufacturer instructions (Cat #A-8766, Vector Best).
The average EC50 values are shown in Table A, wherein “A” corresponds to EC50: A≤0.5 μM, “B” corresponds to 0.5 μM<EC50≤1.0 μM, “C” 1.0 μM<EC50≤5.0 μM, “D” corresponds to 5.0 μM<EC50≤30 μM and “E” corresponds to EC50>30 μM.

Consider `COCCN1CCC[C@@H](Nc2cc(C)c(-c3ccc(C(F)(F)F)cc3NS(C)(=O)=O)nn2)C1` [Compound 56, (R)—N-(2-(6-((1-(2-Methoxyethyl)piperidin-3-yl)amino)-4-methylpyridazin-3-yl)-5-(trifluoromethyl)phenyl) methanesulfonamide], for which the EC50 fell in the range of 1000 to 5000 nM.

In the case of `CCN1CCC[C@@H](Nc2nnc(-c3ccc(C(F)(F)F)cc3NS(=O)(=O)CC)cc2C)C1` [Compound 62, (R)—N-(2-(6-((1-Ethylpiperidin-3-yl)amino)-5-methylpyridazin-3-yl)-5-(trifluoromethyl)phenyl) ethanesulfonamide], the 50% effective concentration (EC50) is less than 500 nM.

For the compound `CCN1CCC[C@@H](Nc2cc(C)c(-c3ccc(C(F)(F)F)cc3NS(=O)(=O)CC)nn2)C1` [Compound 63, N-[2-[6-[[(3R)-1-ethyl-3-piperidyl]amino]-4-methyl-pyridazin-3-yl]-5-(trifluoromethyl)phenyl]ethanesulfon-amide], the 50% effective concentration (EC50) is less than 500 nM.

`CCN1CCC[C@@H](Nc2nnc(-c3ccc(C(F)(F)F)cc3NS(=O)(=O)C3CC3)cc2C)C1` [Compound 64]: the EC50 is less than 500 nM.

For `CCN1CCC[C@@H](Nc2cc(C)c(-c3ccc(C(F)(F)F)cc3NS(=O)(=O)C3CC3)nn2)C1` [Compound 65, (R)—N-(2-(6-((1-Ethylpiperidin-3-yl)amino)-4-methylpyridazin-3-yl)-5-(trifluoromethyl)phenyl) cyclopropanesulfonamide], the EC50 is less than 500 nM.

With `CCN1C[C@H](F)C[C@@H](Nc2nnc(-c3ccc(C(F)(F)F)cc3NS(C)(=O)=O)cc2C)C1` [Compound 66, N-(2-(6-(((3R,5R)-1-ethyl-5-fluoropiperidin-3-yl)amino)-5-methylpyridazin-3-yl)-5-(trifluoromethyl)phenyl) methanesulfonamide], the EC50 lay within 500 to 1000 nM.

As to `Cc1cc(-c2ccc(C(F)(F)F)cc2NS(C)(=O)=O)nnc1N[C@@H]1CCCNC1` [Compound 67, (R)—N-(2-(5-methyl-6-(piperidin-3-ylamino)pyridazin-3-yl)-5-(trifluoromethyl)phenyl) methanesulfonamide], the concentration giving a half-maximal response (EC50) is 1000 to 5000 nM.

Take `CCN1CCC[C@@H](Nc2nnc(-c3ccc(C(F)(F)F)cc3NS(=O)(=O)c3c[nH]cn3)cc2C)C1` [Compound 68, (R)—N-(2-(6-((1-Ethylpiperidin-3-yl)amino)-5-methylpyridazin-3-yl)-5-(trifluoromethyl)phenyl)-1H-imidazole-5-sulfonamide]: the EC50 is 5000 to 30000 nM.

With `CCN1CCC[C@@H](Nc2cc(C)c(-c3ccc(C(F)(F)F)cc3NS(=O)(=O)c3c[nH]cn3)nn2)C1` [Compound 69, N-[2-[6-[[(3R)-1-ethyl-3-piperidyl]amino]-4-methyl-pyridazin-3-yl]-5-(trifluoromethyl)phenyl]-1H-imidazole-4-sulfonamide], the EC50 is 1000 to 5000 nM.

Turning to `CCN1CCC[C@@H](Nc2cc(C)c(-c3ccc(C(F)(F)F)cc3NS(=O)(=O)C(C)C)nn2)C1` [Compound 70, N-[2-[6-[[(3R)-1-ethyl-3-piperidyl]amino]-4-methyl-pyridazin-3-yl]-5-(trifluoromethyl)phenyl]propane-2-sulfonamide], the concentration for a half-maximal effect (EC50) is 1000 to 5000 nM.

In the case of `Cc1cc(N[C@@H]2CCCNC2)nnc1-c1ccc(C(F)(F)F)cc1NS(C)(=O)=O` [Compound 71, N-[2-[4-methyl-6-[[(3R)-3-piperidyl]amino]pyridazin-3-yl]-5-(trifluoromethyl)phenyl]methanesulfon-amide], the EC50 is 1000 to 5000 nM.

Regarding `CCN1CCC[C@@H](Nc2nnc(-c3ccc(C(F)(F)F)cc3NS(=O)(=O)C(C)C)cc2C)C1` [Compound 72], the 50% effective concentration (EC50) was in the range of 5000 to 30000 nM.

Consider `CN1CCC[C@@H](Nc2nnc(-c3ccc(C(F)(F)F)c4c3NS(=O)(=O)N4)cc2C(F)(F)F)C1` [Compound 93, 6-[2,2-dioxo-4-(trifluoromethyl)-1,3-dihydro-2lambda6,1,3-benzothiadiazol-7-yl]-N-[(3R)-1-methyl-3-piperidyl]-4-(trifluoromethyl)pyridazin-3-amine], for which the EC50 fell in the range of 5000 to 30000 nM.

As to `Cc1cc(N[C@@H]2CCCN(C)C2)nnc1-c1ccc(C(F)(F)F)c(N)c1N` [Compound 100, (R)-3-(4-methyl-6-((1-methylpiperidin-3-yl)amino)pyridazin-3-yl)-6-(trifluoromethyl)benzene-1,2-diamine], the 50% effective concentration (EC50) is less than 500 nM.

On to `CN1CCC[C@@H](Nc2cc(C(F)(F)F)c(-c3ccc(C(F)(F)F)c(N)c3N)nn2)C1` [Compound 101, 3-[6-[[(3R)-1-methyl-3-piperidyl]amino]-4-(trifluoromethyl)pyridazin-3-yl]-6-(trifluoromethyl)benzene-1,2-diamine], for which the EC50 lay in the range of 1000 to 5000 nM.

For `CN1CCC[C@@H](Nc2nnc(-c3ccc(C(F)(F)F)c(N)c3N)cc2C(F)(F)F)C1` [Compound 102, 3-[6-[[(3R)-1-methyl-3-piperidyl]amino]-5-(trifluoromethyl)pyridazin-3-yl]-6-(trifluoromethyl)benzene-1,2-diamine], the EC50 lay within 5000 to 30000 nM.

Take `Cc1cc(-c2ccc(C(F)(F)F)c(N)c2N)nnc1N[C@@H]1CCCN(C)C1` [Compound 103, 3-[5-methyl-6-[[(3R)-1-methyl-3-piperidyl]amino]pyridazin-3-yl]-6-(trifluoromethyl)benzene-1,2-diamine]: the EC50 was in the range of 5000 to 30000 nM.

As to `CNc1cc(C(F)(F)F)ccc1-c1nnc(N[C@@H]2CCCN(C(C)C)C2)cc1C` [Compound 108, N-[(3R)-1-isopropyl-3-piperidyl]-5-methyl-6-[2-(methylamino)-4-(trifluoromethyl)phenyl]pyridazin-3-amine], the EC50 is less than 500 nM.

Turning to `CCNc1cc(C(F)(F)F)ccc1-c1nnc(N[C@@H]2CCCN(C(C)C)C2)cc1C` [Compound 109, 6-[2-(ethylamino)-4-(trifluoromethyl)phenyl]-N-[(3R)-1-isopropyl-3-piperidyl]-5-methyl-pyridazin-3-amine], the EC50 was less than 500 nM.

For `Cc1cc(N[C@@H]2CCCN(C(C)C)C2)nnc1-c1ccc(C(F)(F)F)cc1N` [Compound 110, (R)-6-(2-Amino-4-(trifluoromethyl)phenyl)-N-(1-isopropylpiperidin-3-yl)-5-methyl pyridazin-3-amine], the EC50 was less than 500 nM.

For `Cc1cc(N[C@@H]2CCCN(C(C)C)C2)nnc1-c1ccc(C(F)(F)F)cc1NC(C)C` [Compound 111, 6-[2-(isopropylamino)-4-(trifluoromethyl)phenyl]-N-[(3R)-1-isopropyl-3-piperidyl]-5-methyl-pyridazin-3-amine], the EC50 was less than 500 nM.

Regarding `Cc1cc(N[C@@H]2CCCN(C(C)C)C2)nnc1-c1ccc(C(F)(F)F)cc1Nc1ccccc1` [Compound 112, 6-[2-anilino-4-(trifluoromethyl)phenyl]-N-[(3R)-1-isopropyl-3-piperidyl]-5-methyl-pyridazin-3-amine], the EC50 is less than 500 nM.

In the case of `Cc1cc(N[C@@H]2CCCN(C(C)C)C2)nnc1-c1ccc(C(F)(F)F)cc1NC(=O)C(F)F` [Compound 113], the concentration giving a half-maximal response (EC50) is less than 500 nM.

Regarding `CCNc1cc(C(F)(F)F)ccc1-c1cc(C)c(N[C@@H]2CCCN(C(C)C)C2)nn1` [Compound 114, 6-[2-(ethylamino)-4-(trifluoromethyl)phenyl]-N-[(3R)-1-isopropyl-3-piperidyl]-4-methyl-pyridazin-3-amine], the EC50 is less than 500 nM.

Consider `Cc1cc(-c2ccc(C(F)(F)F)cc2NC(C)C)nnc1N[C@@H]1CCCN(C(C)C)C1` [Compound 115, 6-[2-(isopropylamino)-4-(trifluoromethyl)phenyl]-N-[(3R)-1-isopropyl-3-piperidyl]-4-methyl-pyridazin-3-amine], for which the 50% effective concentration (EC50) was less than 500 nM.

Consider `CCN1CCC[C@@H](Nc2cc(C)c(-c3ccc(C(F)(F)F)cc3NC(=O)C(F)(F)F)nn2)C1` [Compound 116, N-[2-[6-[[(3R)-1-ethyl-3-piperidyl]amino]-4-methyl-pyridazin-3-yl]-5-(trifluoromethyl)phenyl]-2,2,2-trifluoro-acetamide], for which the EC50 was less than 500 nM.
